From ChEMBL document CHEMBL3603772, “Chemical Biology of Leucine-Rich Repeat Kinase 2 (LRRK2) Inhibitors” (J Med Chem, 2015)

Tests used:
[1] = biological target: Leucine-rich repeat serine/threonine-protein kinase 2 (Homo sapiens, UniProt Q5S007); assay: Inhibition of LRRK2 (unknown origin)
[2] = Inhibition of LRRK2 G2019S mutant-induced neuronal toxicity in rat cortical neurons
Brain = assay: Druguptake in mouse brain at 1 mg/kg, iv; type: ADME, organism-based; settings: in vivo
[3] = Clearance in mouse at 1 mg/kg, iv; type: ADME, organism-based; settings: in vivo
[4] = biological target: Leucine-rich repeat serine/threonine-protein kinase 2 (Homo sapiens, UniProt Q5S007, G2019S); assay: Inhibition of LRRK2 G2019S mutant in human HEK293 cells assessed as phosphorylation at Ser935; type: cell-based
Sequence of Leucine-rich repeat serine/threonine-protein kinase 2 (Homo sapiens, UniProt Q5S007, G2019S) (Q5S007 whole entry G2019S): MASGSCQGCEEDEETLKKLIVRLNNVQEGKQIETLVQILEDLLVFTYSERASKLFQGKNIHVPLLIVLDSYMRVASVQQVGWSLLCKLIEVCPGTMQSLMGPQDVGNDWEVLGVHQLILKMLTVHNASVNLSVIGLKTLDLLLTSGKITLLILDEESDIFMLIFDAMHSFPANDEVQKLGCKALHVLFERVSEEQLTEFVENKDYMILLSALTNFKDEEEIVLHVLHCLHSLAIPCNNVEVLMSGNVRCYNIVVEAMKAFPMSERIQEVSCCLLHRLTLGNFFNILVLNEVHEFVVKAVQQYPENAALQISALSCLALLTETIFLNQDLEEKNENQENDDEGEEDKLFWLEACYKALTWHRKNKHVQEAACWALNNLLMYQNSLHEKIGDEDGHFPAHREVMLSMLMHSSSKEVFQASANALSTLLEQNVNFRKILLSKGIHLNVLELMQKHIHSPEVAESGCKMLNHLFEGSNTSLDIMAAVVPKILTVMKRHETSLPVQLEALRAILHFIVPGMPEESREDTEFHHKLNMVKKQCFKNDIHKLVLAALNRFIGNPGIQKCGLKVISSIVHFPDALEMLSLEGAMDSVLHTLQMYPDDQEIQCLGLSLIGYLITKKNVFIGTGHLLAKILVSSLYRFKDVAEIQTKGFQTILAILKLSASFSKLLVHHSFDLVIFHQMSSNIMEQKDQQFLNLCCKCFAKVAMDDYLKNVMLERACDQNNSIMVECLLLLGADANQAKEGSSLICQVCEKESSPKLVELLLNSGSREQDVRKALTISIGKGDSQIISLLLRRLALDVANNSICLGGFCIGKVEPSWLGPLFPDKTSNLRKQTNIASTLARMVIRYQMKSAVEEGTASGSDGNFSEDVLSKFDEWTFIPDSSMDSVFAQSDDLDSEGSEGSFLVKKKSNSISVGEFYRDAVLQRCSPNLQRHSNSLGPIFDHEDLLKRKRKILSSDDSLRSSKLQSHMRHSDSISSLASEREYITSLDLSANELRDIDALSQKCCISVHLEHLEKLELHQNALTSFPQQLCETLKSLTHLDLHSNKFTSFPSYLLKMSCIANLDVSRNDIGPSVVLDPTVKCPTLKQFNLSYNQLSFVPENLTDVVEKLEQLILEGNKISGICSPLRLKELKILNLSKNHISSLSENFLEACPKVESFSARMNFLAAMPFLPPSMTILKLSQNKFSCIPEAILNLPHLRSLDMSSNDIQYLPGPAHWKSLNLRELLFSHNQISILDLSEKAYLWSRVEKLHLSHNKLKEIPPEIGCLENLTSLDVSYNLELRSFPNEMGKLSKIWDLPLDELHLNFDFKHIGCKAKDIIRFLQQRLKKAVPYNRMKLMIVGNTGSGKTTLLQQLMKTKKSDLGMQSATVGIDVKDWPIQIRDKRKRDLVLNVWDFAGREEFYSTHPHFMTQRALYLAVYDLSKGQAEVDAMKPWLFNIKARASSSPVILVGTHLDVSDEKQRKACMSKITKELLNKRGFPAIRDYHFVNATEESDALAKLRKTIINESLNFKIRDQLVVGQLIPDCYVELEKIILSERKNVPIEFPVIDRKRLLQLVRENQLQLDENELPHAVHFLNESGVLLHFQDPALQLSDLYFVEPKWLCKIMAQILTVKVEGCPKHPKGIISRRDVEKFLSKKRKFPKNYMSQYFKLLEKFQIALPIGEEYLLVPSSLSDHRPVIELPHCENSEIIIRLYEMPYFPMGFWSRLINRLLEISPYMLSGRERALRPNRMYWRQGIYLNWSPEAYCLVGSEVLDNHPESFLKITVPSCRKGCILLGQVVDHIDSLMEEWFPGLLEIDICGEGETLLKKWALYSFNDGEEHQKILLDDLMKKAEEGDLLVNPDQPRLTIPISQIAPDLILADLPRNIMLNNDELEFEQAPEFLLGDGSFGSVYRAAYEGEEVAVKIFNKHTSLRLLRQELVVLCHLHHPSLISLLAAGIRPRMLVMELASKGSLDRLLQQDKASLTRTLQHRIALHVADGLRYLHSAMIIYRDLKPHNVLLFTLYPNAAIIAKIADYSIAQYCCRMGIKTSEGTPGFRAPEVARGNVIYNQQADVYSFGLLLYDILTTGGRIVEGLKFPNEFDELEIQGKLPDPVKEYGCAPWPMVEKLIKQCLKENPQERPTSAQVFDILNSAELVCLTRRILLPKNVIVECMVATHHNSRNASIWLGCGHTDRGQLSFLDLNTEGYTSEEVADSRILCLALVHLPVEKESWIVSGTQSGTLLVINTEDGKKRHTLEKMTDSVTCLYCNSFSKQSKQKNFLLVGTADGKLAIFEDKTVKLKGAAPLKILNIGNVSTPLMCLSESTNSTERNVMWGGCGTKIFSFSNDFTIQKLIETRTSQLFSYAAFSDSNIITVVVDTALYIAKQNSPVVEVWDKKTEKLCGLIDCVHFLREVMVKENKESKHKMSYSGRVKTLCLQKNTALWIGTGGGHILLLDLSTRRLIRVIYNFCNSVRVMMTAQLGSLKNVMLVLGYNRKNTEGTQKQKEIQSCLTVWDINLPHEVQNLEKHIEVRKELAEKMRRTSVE

Sequence of Leucine-rich repeat serine/threonine-protein kinase 2 (Homo sapiens, UniProt Q5S007) (Q5S007 whole entry): as the sequence (Q5S007 whole entry G2019S) above, with S2019G counted along it

Row | SMILES | IC50 [1] [nM] | EC50 [2] [nM] | Drug uptake (Brain) [%] | clearance [3] [mL/min/kg] | IC50 [4] [nM]
1 | COc1cc(C(=O)N2CCC(N3CCN(C)CC3)CC2)ccc1Nc1ncc2c(n1)N(C)c1ccccc1C(=O)N2C | 6 | – | – | – | –
2 | COc1cc(N2CCOCC2)ccc1Nc1ncc(F)c(Nc2ccccc2NS(C)(=O)=O)n1 | 7 | 100 | 4 | 2.3 | –
3 | CN1CCN(c2ccc(OCc3ccccc3)c(C(=O)Nc3cccnc3)c2)CC1 | 6 | – | – | – | 94
